From patent US12185723B2, “Herbicidally active 3-phenylisoxazoline-5-carboxamides of s-containing cyclopentenylcarboxylic esters” (Bayer Aktiengesellschaft, priority 2019, dated 2025)

Assays:
Format in all cases: in vivo
Echinochloa crus-galli = test: Post-emergence herbicidal action against ECHCG; conditions: visual rating about 3 weeks after treatment
Summary of the method: (§1)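 WP- or EC-formulated compounds, with 0.5% additive, applied as a 600 l/ha spray onto green parts of one-leaf-stage plants grown 2–3 weeks in sandy loam. After roughly 3 weeks in the greenhouse, visual % activity scored versus untreated plants, 100% meaning death.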

Abutilon theophrasti = test: Post-emergence herbicidal action against ABUTH; conditions: visual rating about 3 weeks after treatment
Summary of the method: as §1

Amaranthus retroflexus = test: Post-emergence herbicidal action against AMARE
Summary of the method: as §1

Matricaria inodora = test: Post-emergence herbicidal action against MATIN
Summary of the method: as §1

Veronica persica = test: Post-emergence herbicidal action against VERPE
Summary of the method: as §1

Hordeum murinum = test: Post-emergence herbicidal action against HORMU
Summary of the method: as §1

Pharbitis purpurea = test: Post-emergence herbicidal action against PHBPU
Summary of the method: as §1

Lolium rigidum = test: Post-emergence herbicidal action against LOLRI; conditions: visual rating about 3 weeks after treatment
Summary of the method: as §1

Stellaria media = test: Post-emergence herbicidal action against STEME
Summary of the method: as §1

DIGSA = test: Post-emergence herbicidal action against DIGSA; conditions: visual rating about 3 weeks after treatment
Summary of the method: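 Greenhouse-grown plants sprayed at one-leaf stage (2–3 weeks after sowing) with WP or EC formulations as aqueous suspension/emulsion plus 0.5% additive, 600 l/ha water. Activity rated visually about 3 weeks later versus untreated controls, 100% = plants dead, 0% = like controls.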

Viola tricolor = test: Post-emergence herbicidal action against VIOTR
Summary of the method: as §1

Avena fatua = test: Post-emergence herbicidal action against AVEFA; conditions: visual rating about 3 weeks after treatment
Summary of the method: as §1

Setaria viridis = test: Post-emergence herbicidal action against SETVI; conditions: visual rating about 3 weeks after treatment
Summary of the method: as §1

Polygonum convolvulus = test: Post-emergence herbicidal action against POLCO
Summary of the method: as §1

Alopecurus myosuroides = test: Post-emergence herbicidal action against ALOMY; conditions: visual rating about 3 weeks after treatment
Summary of the method: as §1

[1] = 80 g a.i./ha, visual rating about 3 weeks after treatment

Structure (SMILES)	Herbicidal action against [%] ECHCG (Echinochloa crus-galli; 20 g a.i./ha) [%]	Herbicidal action against [%] ECHCG (Echinochloa crus-galli; 80 g a.i./ha) [%]	Herbicidal action against [%] ABUTH (Abutilon theophrasti; 80 g a.i./ha) [%]	Herbicidal action against [%] AMARE (Amaranthus retroflexus; 20 g a.i./ha) [%]	Herbicidal action against [%] AMARE (Amaranthus retroflexus; [1]) [%]	Herbicidal action against [%] MATIN (Matricaria inodora; [1]) [%]	Herbicidal action against [%] VERPE (Veronica persica; 20 g a.i./ha) [%]	Herbicidal action against [%] VERPE (Veronica persica; 80 g a.i./ha) [%]	Herbicidal action against [%] HORMU (Hordeum murinum; 20 g a.i./ha) [%]	Herbicidal action against [%] HORMU (Hordeum murinum; 80 g a.i./ha) [%]	Herbicidal action against [%] PHBPU (Pharbitis purpurea; 80 g a.i./ha) [%]	Herbicidal action against [%] LOLRI (Lolium rigidum; 20 g a.i./ha) [%]	Herbicidal action against [%] LOLRI (Lolium rigidum; 80 g a.i./ha) [%]	Herbicidal action against [%] STEME (Stellaria media; 20 g a.i./ha) [%]	Herbicidal action against [%] STEME (Stellaria media; 80 g a.i./ha) [%]	Herbicidal action against [%] DIGSA (DIGSA; 20 g a.i./ha) [%]	Herbicidal action against [%] DIGSA (DIGSA; 80 g a.i./ha) [%]	Herbicidal action against [%] VIOTR (Viola tricolor; 20 g a.i./ha) [%]	Herbicidal action against [%] AVEFA (Avena fatua; 20 g a.i./ha) [%]	Herbicidal action against [%] AVEFA (Avena fatua; 80 g a.i./ha) [%]	other results
C=CC1(C(=O)NC2C=CC(C(=O)OCCSC)C2)CC(c2cc(F)cc(F)c2)=NO1 (stereo not drawn) [Example I-18]	90	90	90	90	90	90	90	90	100	100	80	90	90	90	90	90	90	90	90	100	Herbicidal action against [%] ABUTH (Abutilon theophrasti; 20 g a.i./ha): 90%; Herbicidal action against [%] MATIN (Matricaria inodora; 20 g a.i./ha): 90%; Herbicidal action against [%] PHBPU (Pharbitis purpurea; 20 g a.i./ha): 80%; Herbicidal action against [%] VIOTR (Viola tricolor; 80 g a.i./ha): 80%; Herbicidal action against [%] SETVI (Setaria viridis; 20 g a.i./ha): 80%; Herbicidal action against [%] SETVI (Setaria viridis; 80 g a.i./ha): 80%; Herbicidal action against [%] POLCO (Polygonum convolvulus; 20 g a.i./ha): 90%; Herbicidal action against [%] POLCO (Polygonum convolvulus; 80 g a.i./ha): 90%; Herbicidal action against [%] ALOMY (Alopecurus myosuroides; 20 g a.i./ha): 100%; Herbicidal action against [%] ALOMY (Alopecurus myosuroides; 80 g a.i./ha): 100%
CSCCOC(=O)C1C=CC(NC(=O)C2(C(F)(F)F)CC(c3cc(F)cc(C#N)c3)=NO2)C1 (mixture of isomers) [Example I-38]	90	90	90	80	80	80	90	90	80	80	90	90	90	100	100	90	90	100	90	90	Herbicidal action against [%] ABUTH (Abutilon theophrasti; 20 g a.i./ha): 90%; Herbicidal action against [%] VIOTR (Viola tricolor; 80 g a.i./ha): 80%; Herbicidal action against [%] SETVI (Setaria viridis; 20 g a.i./ha): 90%; Herbicidal action against [%] SETVI (Setaria viridis; 80 g a.i./ha): 90%; Herbicidal action against [%] POLCO (Polygonum convolvulus; 20 g a.i./ha): 90%; Herbicidal action against [%] POLCO (Polygonum convolvulus; 80 g a.i./ha): 90%; Herbicidal action against [%] ALOMY (Alopecurus myosuroides; 20 g a.i./ha): 80%; Herbicidal action against [%] ALOMY (Alopecurus myosuroides; 80 g a.i./ha): 90%
CSCCOC(=O)C1C=CC(NC(=O)C2(CCl)CC(c3cc(F)cc(F)c3)=NO2)C1 (stereo not drawn) [Example I-31]	90	90	80	80	80	80	80	80	90	90	90	90	90	80	80	90	90	80	90	90	Herbicidal action against [%] MATIN (Matricaria inodora; 20 g a.i./ha): 80%; Herbicidal action against [%] VIOTR (Viola tricolor; 80 g a.i./ha): 80%; Herbicidal action against [%] SETVI (Setaria viridis; 20 g a.i./ha): 80%; Herbicidal action against [%] SETVI (Setaria viridis; 80 g a.i./ha): 90%; Herbicidal action against [%] POLCO (Polygonum convolvulus; 20 g a.i./ha): 90%; Herbicidal action against [%] POLCO (Polygonum convolvulus; 80 g a.i./ha): 90%; Herbicidal action against [%] ALOMY (Alopecurus myosuroides; 20 g a.i./ha): 90%; Herbicidal action against [%] ALOMY (Alopecurus myosuroides; 80 g a.i./ha): 90%
CSCCOC(=O)C1C=CC(NC(=O)C2(C(F)(F)F)CC(c3cc(F)cc(F)c3)=NO2)C1 (stereo not drawn) [Example I-17]	80	90	80	80	80	80	80	80	90	90	80	100	100	80	90	90	90	80	100	100	Herbicidal action against [%] ABUTH (Abutilon theophrasti; 20 g a.i./ha): 80%; Herbicidal action against [%] MATIN (Matricaria inodora; 20 g a.i./ha): 80%; Herbicidal action against [%] PHBPU (Pharbitis purpurea; 20 g a.i./ha): 80%; Herbicidal action against [%] VIOTR (Viola tricolor; 80 g a.i./ha): 80%; Herbicidal action against [%] SETVI (Setaria viridis; 20 g a.i./ha): 80%; Herbicidal action against [%] SETVI (Setaria viridis; 80 g a.i./ha): 80%; Herbicidal action against [%] POLCO (Polygonum convolvulus; 20 g a.i./ha): 80%; Herbicidal action against [%] POLCO (Polygonum convolvulus; 80 g a.i./ha): 80%; Herbicidal action against [%] ALOMY (Alopecurus myosuroides; 20 g a.i./ha): 90%; Herbicidal action against [%] ALOMY (Alopecurus myosuroides; 80 g a.i./ha): 90%
CSCCOC(=O)C1C=CC(NC(=O)C2(C)CC(c3cc(F)cc(F)c3)=NO2)C1 (stereo not drawn) [Example I-06]	90	90	80	80	80	80	80	90	90	90	80	100	100	90	90	90	90	90	100	100	Herbicidal action against [%] ABUTH (Abutilon theophrasti; 20 g a.i./ha): 80%; Herbicidal action against [%] PHBPU (Pharbitis purpurea; 20 g a.i./ha): 80%; Herbicidal action against [%] SETVI (Setaria viridis; 20 g a.i./ha): 80%; Herbicidal action against [%] SETVI (Setaria viridis; 80 g a.i./ha): 90%; Herbicidal action against [%] POLCO (Polygonum convolvulus; 20 g a.i./ha): 90%; Herbicidal action against [%] POLCO (Polygonum convolvulus; 80 g a.i./ha): 90%; Herbicidal action against [%] ALOMY (Alopecurus myosuroides; 20 g a.i./ha): 100%; Herbicidal action against [%] ALOMY (Alopecurus myosuroides; 80 g a.i./ha): 100%
